Measured values from US10030021B2, “Spirocyclic morphinans and use thereof” (Purdue Pharma L.P., priority 2014, dated 2018).

Key:
μ-opioid receptor = molecular target: T1, μ-opioid receptor (Homo sapiens, UniProt P35372); assay: μ-opioid receptor [35S]GTPγS functional assay; assay type: biochemical; conditions: for Emax: maximal effect relative to DAMGO
T1 construct: purchased Perkin Elmer, Shelton, Conn
Method: [^35S]GTPγS functional assays were conducted using freshly thawed μ-receptor membranes (Perkin Elmer, Shelton, Conn.). Assay reactions were prepared by sequentially adding the following reagents to binding buffer (100 mM NaCl, 10 mM MgCl2, 20 mM HEPES, pH 7.4) on ice (final concentrations indicated): membrane protein (0.026 mg/mL), saponin ([…]), GDP ([…]) and [^35S]GTPγS (0.20 nM; Perkin Elmer, Shelton, Conn.). The prepared membrane solution (190 μl/well) was transferred to 96-shallow well polypropylene plates containing 10 μl of 20× concentrated stock solutions of the agonist [D-Ala^2, N-methyl-Phe^4 Gly-ol^5]-enkephalin (DAMGO) prepared in dimethyl sulfoxide (DMSO). Plates were incubated for 30 min at about 25° C. with shaking. Reactions were terminated by rapid filtration onto 96-well Unifilter GF/B filter plates (Perkin Elmer, Shelton, Conn.) using a 96-well tissue harvester (Perkin Elmer, Shelton, Conn.) followed by three filtration washes with 200 μl of ice-cold wash buffer (10 mM NaH2PO4, 10 mM Na2HPO4, pH 7.4). Filter plates were subsequently dried at 50° C. for 2-3 hours. BetaScint scintillation cocktail (Perkin Elmer, Shelton, Conn.) was added (50 μl/well) and plates were counted using a Packard Top-Count for 1 min/well. Data were analyzed using the sigmoidal dose-response curve fitting functions in GraphPad PRISM v. 3.0, or an in-house function for non-linear, sigmoidal dose-response curve-fitting.
μ GTP EC50 is the concentration of a compound providing 50% of the maximal response for the compound at a μ-opioid receptor.
μ GTP Emax (%) is the maximal effect elicited by a compound relative to the effect elicited by DAMGO, a standard agonist. Generally, the μ GTP Emax (%) value measures the efficacy of a compound to treat or prevent pain or other Conditions.

κ opioid receptor = molecular target: T2, κ opioid receptor (Homo sapiens, UniProt P41145); assay: κ-opioid receptor [35S]GTPγS functional assay; assay type: biochemical
T2 construct: expressed in transfected cells; host or cells: HEK-293 (inferred from the in-house κ membrane preparation)
Method: Functional [^35S]GTPγS binding assays were conducted as follows. κ opioid receptor membrane solution was prepared by sequentially adding final concentrations of 0.026 μg/μl κ membrane protein (in-house), 10 μg/mL saponin, 3 μM GDP and 0.20 nM [^35S]GTPγS to binding buffer (100 mM NaCl, 10 mM MgCl2, 20 mM HEPES, pH 7.4) on ice. The prepared membrane solution (190 μl/well) was transferred to 96-shallow well polypropylene plates containing 10 μl of 20× concentrated stock solutions of agonist prepared in DMSO. Plates were incubated for 30 min at a temperature of about 25° C. with shaking. Reactions were terminated by rapid filtration onto 96-well Unifilter GF/B filter plates (Perkin Elmer, Shelton, Conn.) using a 96-well tissue harvester (Packard) and followed by three filtration washes with 200 μl ice-cold binding buffer (10 mM NaH2PO4, 10 mM Na2HPO4, pH 7.4). Filter plates were subsequently dried at 50° C. for 2-3 hours. Fifty μ1/well scintillation cocktail (Perkin Elmer, Shelton, Conn.) was added and plates were counted in a Packard Top-Count for 1 min/well.
κ GTP EC50 is the concentration of a compound providing 50% of the maximal response for the compound at a κ receptor.
κ GTP Emax (%) is the maximal effect elicited by a compound relative to the effect elicited by U69,593.

[1] = molecular target: T3, human kappa opioid receptor (κ) (Homo sapiens, UniProt P41145); assay: κ-opioid receptor radioligand ([3H]-U69,593) dose displacement binding assay
T3 construct: expressed in transfected cells; host or cells: HEK-293
Method: Membranes from recombinant HEK-293 cells expressing the human kappa opioid receptor (κ) (cloned in house) were prepared by lysing cells in ice cold hypotonic buffer (2.5 mM MgCl2, 50 mM HEPES, pH 7.4) (10 mL/10 cm dish) followed by homogenization with a tissue grinder/Teflon pestle. Membranes were collected by centrifugation at 30,000×g for 15 min at 4° C. and pellets were resuspended in hypotonic buffer to a final concentration of 1-3 mg/mL. Protein concentrations were determined using the BioRad protein assay reagent with bovine serum albumen as standard. Aliquots of κ receptor membranes were stored at −80° C.
Radioligand dose displacement assays used 0.4 nM [^3H]-U69,593 (GE Healthcare, Piscataway, N.J.; 40 Ci/mmole) with 15 μg membrane protein (recombinant κ opioid receptor expressed in HEK 293 cells; in-house prep) in a final volume of 200 μl binding buffer (5% DMSO, 50 mM Trizma base, pH 7.4). Non-specific binding was determined in the presence of 10 μM unlabeled naloxone or U69,593. All reactions were performed in 96-well polypropylene plates for 1 hour at a temperature of about 25° C. […] Fifty μl/well scintillation cocktail (Perkin Elmer, Shelton, Conn.) was added and plates were counted in a Packard Top-Count for 1 min/well.

T1 sequence (P35372 whole entry, species assumed): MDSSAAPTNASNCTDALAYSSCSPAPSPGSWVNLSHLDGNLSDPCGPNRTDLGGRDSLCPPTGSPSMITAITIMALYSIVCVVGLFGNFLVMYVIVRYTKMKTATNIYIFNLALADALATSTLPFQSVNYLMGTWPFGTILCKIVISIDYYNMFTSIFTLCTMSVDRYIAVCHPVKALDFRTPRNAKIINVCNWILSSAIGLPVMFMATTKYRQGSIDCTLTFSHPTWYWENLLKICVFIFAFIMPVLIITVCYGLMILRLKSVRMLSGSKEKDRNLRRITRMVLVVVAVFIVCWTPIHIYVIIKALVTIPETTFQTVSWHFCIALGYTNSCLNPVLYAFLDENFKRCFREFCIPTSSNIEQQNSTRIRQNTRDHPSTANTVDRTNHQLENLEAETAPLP
T2 sequence (P41145 whole entry): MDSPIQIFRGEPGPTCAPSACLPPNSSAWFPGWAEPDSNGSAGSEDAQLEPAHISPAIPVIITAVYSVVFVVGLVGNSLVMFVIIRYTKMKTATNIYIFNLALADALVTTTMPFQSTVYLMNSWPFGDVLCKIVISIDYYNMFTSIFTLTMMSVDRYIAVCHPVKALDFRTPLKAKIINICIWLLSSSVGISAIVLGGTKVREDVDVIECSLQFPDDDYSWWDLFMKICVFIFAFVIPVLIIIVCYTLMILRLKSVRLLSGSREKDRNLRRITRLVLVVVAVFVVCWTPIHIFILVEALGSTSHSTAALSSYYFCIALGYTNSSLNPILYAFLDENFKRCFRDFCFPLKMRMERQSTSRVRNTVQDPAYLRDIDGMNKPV
T3 sequence (P41145 whole entry): as above

SMILES	EC50 (μ-opioid receptor)	Emax (μ-opioid receptor)	EC50 (κ opioid receptor)	Emax (κ opioid receptor; maximal effect relative to U69,593)	Ki [1]
CCN1C(=O)N(CC)[C@]2(CC[C@H]3[C@H]4Cc5ccc(O)cc5[C@@]3(CCN4C)C2)C1=O [Compound 21, (4S,4b′S,8a′R,9′R)-1,3-diethyl-3′-hydroxy-11′-methyl-8′,8a′,9′,10′-tetrahydro-5′H,7′H-spiro[imidazolidine-4,6′-[9,4b](epiminoethano)phenanthrene]-2,5-dione]	0.0547 ± 0.00776 µM	24.7 ± 2.46%	0.221 ± 0.0226 µM	56.7 ± 3.66%	0.0105 ± 0.00111 µM
CCN1C(=O)N(CC)[C@]2(CC[C@@]3(O)[C@H]4Cc5ccc(O)cc5[C@@]3(CCN4CCCN(C)C)C2)C1=O [Compound 27, (4S,4b′R,8a′S,9′R)-11′-(3-(dimethylamino)propyl)-1,3-diethyl-3′,8a′-dihydroxy-8′,8a′,9′,10′-tetrahydro-5′H,7′H-spiro[imidazolidine-4,6′-[9,4b](epiminoethano)phenanthrene]-2,5-dione]	> 20 µM	1%	–	–	–
COc1ccc2c(c1)[C@]13CCN(C)[C@H](C2)[C@@H]1CC[C@@]1(C3)NC(=O)NC1=O [Compound 2, (4S,4b′S,8a′R,9′R)-3′-methoxy-11′-methyl-8′,8a′,9′,10′-tetrahydro-5′H,7′H-spiro[imidazolidine-4,6′-[9,4b](epiminoethano)phenanthrene]-2,5-dione]	18 ± 1.1 µM	75.7 ± 0.88%	–	–	–
COc1ccc2c(c1)[C@]13CCN(CCN(C)C)[C@H](C2)[C@]1(O)CC[C@]1(C3)C(=O)N(CC2CC2)C(=O)N1CC1CC1 [Compound 15, (4S,4b′R,8a′S,9′R)-1,3-bis(cyclopropylmethyl)-11′-(2-(dimethylamino)ethyl)-8a′-hydroxy-3′-methoxy-8′,8a′,9′,10′-tetrahydro-5′H,7′H-spiro[imidazolidine-4,6′-[9,4b]-(epiminoethano)phenanthrene]-2,5-dione]	> 20 µM	1%	–	–	–
